Patent publication US20240287082A1, “NEW BENZODIAZEPINE DERIVATIVES AS GABA A GAMMA1 PAM” (Hoffmann-La Roche Inc., priority 2021, published 2024)
Read-outs that look alike come from different tables or passages of the source.

Legend:
[1] = biological target: human GABAA α1β2γ1 receptor (Homo sapiens (Human), UniProt P14867+Q8N1C3); assay: Radioligand binding assay, competition for [3H]RO7239181, γ1-containing GABAA subtype α1β2γ1; conditions: membranes of HEK293F cells, [3H]RO7239181 20-30 nM, mean of two determinations
Protocol: (§1) The affinity of compounds at GABAA γ1 subunit-containing receptors was measured by competition for [^3H]RO7239181 (67.3 Ci/mmol; Roche) binding to membranes from HEK293F cells (ThermoFisher R^79007) expressing human (transiently transfected) receptors of composition α5β2γ1, α2β2γ1, α1β2γ1.
(§2) Harvested pellets from HEK293F cells expressing the different GABAA receptor subtypes were resuspended in Mannitol Buffer pH 7.2-7.4 (Mannitol 0.29M, Triethylamine 10 mM, Acetic acid 10 mM, EDTA 1 mM plus protease inhibitors (20 tablets Complete, Roche Diagnostics Cat. No. 05 056 489 001 per liter)), washed two times and then resuspended at 1:10 to 1:15 dilution in the same buffer. Cell disruption was performed by stirring the suspension in a Parr vessel #4637 at 435 psi for 15 minutes, and then the suspensions were centrifuged at 1000×g for 15 minutes at 4° C. (Beckman Avanti J-HC: rotor JS-4.2). The supernatant (S1) was transferred in a 21 Schott flask and the pellet (P1) was resuspended with Mannitol Buffer up to 175 ml. The resuspended pellet was transferred into a 250 ml Corning centrifugal beaker and centrifuged at 1500×g for 10 minutes at 4° C. (Beckman Avanti J-HC: rotor JS-4.2). The supernatant (S1) was then transferred in the 21 Schott flask and the pellet was discarded. The supernatants (S1) were centrifuged in 500 ml Beckman polypropylene centrifugal beaker at 15 000×g for 30 minutes at 4° C. (Beckman Avanti J-20 XP: rotor JLA-10.500). The pellet (P2) was resuspended with Mannitol Buffer 1:1 and frozen at −80° C. The supernatant (S2) was centrifuged in 100 ml Beckman polypropylene centrifugal tubes at 48000×g for 50 minutes at 4° C. (Beckman Avanti J-20 XP: rotor JA-18). The supernatant (S3) was discarded and the pellet (P3) was resuspended with 1:1 Mannitol Buffer. The P2 and P3 protein concentration was determined with the BIORAD Standard assay method with bovine serum albumin as standard and measured on the NANO-Drop 1000. The membrane suspension was aliquots (500 μl per tube) and stored at −80° C. until required.
(§3) Membrane homogenates were resuspended and polytronised (Polytron PT1200E Kinematica AG) in Potassium Phosphate 10 mM, KCl 100 mM binding buffer at pH 7.4 to a final assay concentration determined with a previous experiment.
(§4) Assays were incubated to equilibrium for 1 hour at 4° C. and then, membranes were filtered onto unifilter (96-well white microplate with bonded GF/C filters preincubated 20-50 minutes in 0.3% Polyethylenimine) with a Filtermate 196 harvester (Packard BioScience) and washed 4 times with cold Potassium Phosphate 10 mM pH 7.4, KCl 100 mM binding buffer. After anhydrousing, filter-retained radioactivity was detected by liquid scintillation counting. Ki values were calculated using Excel-Fit (Microsoft) and are the means of two determinations.

[2] = biological target: human GABAA α2β2γ1 receptor (Homo sapiens (Human), UniProt P47869+Q8N1C3); assay: Radioligand binding assay, competition for [3H]RO7239181, γ1-containing GABAA subtype α2β2γ1; conditions: for γ2/γ1 Selectivity Ratio: Ki α1β3γ2 (nM)/Ki α2β2γ1 (nM); for LogSel: Log[Ki α1β3γ2 (nM)/Ki α2β2γ1 (nM)]
Protocol: as §1, §2, §3, §4

[3] = biological target: human GABAA α5β2γ1 receptor (Homo sapiens (Human), UniProt P31644+Q8N1C3); assay: Radioligand binding assay, competition for [3H]RO7239181, γ1-containing GABAA subtype α5β2γ1
Protocol: as §1, with “α1β2γ1. For better protein expression of the α2 subunit-containing receptors, the 28 amino acid long signal peptide (Met1 to Ala28)of the human GABAA α2 subunit was substituted by the 31 amino acid long signal peptide (Met1 to Ser31) of human GABAA α5 subunit.” for “α1β2γ1.”
as §2, §3
as §4, with “Radioligand binding assays were carried out in a volume of 200 μL (96-well plates) which contained 100 μL of cell membranes, [3H]RO7239181 at a concentration of 1.5 nM (α5β2γ1) or 20-30 nM (α1β2γ1, α2β2γ1) and the test compound in the range of [0.3-1000]×10^−9 M. Nonspecific binding was defined by 10×10^−6 (α5β2γ1) and 30×10^−6 M RO7239181 and typically represented less than 5% (α5β2γ1) and less than 20% (α1β2γ1, α2β2γ1) of the total binding. Assays” for “Assays”

[4] = biological target: human GABAA α1β3γ2 receptor (Homo sapiens (Human), UniProt P14867+P18507); assay: Radioligand binding assay, competition for [3H]Flumazenil, γ2-containing GABAA subtype α1β3γ2
Protocol: The affinity of compounds at GABAA γ2 subunit-containing receptors was measured by competition for [^3H]Flumazenil (81.1 Ci/mmol; Roche) binding to HEK293F cells expressing human (transiently transfected) receptors of composition α1β3γ2.
Harvested pellets from HEK293F cells expressing the different GABAA γ2 receptor subtypes were resuspended in Mannitol Buffer pH 7.2-7.4 and processed as described above for the cells expressing the GABAA γ1 subunit-containing receptors.
Assays were incubated to equilibrium for 1 hour at 4° C. and harvested onto GF/C uni-filters (Packard) by filtration using a Packard harvester and washing with ice-cold wash buffer (50 mM Tris; pH 7.5). After anhydrousing, filter-retained radioactivity was detected by liquid scintillation counting. Ki values were calculated using Excel-Fit (Microsoft) and are the means of two determinations.

[5] = biological target: h-GABA-A α2β2γ1 (Homo sapiens (Human), UniProt P47869+Q8N1C3); assay: Two-electrode voltage clamp electrophysiology in Xenopus oocytes expressing GABAA receptors, modulation of GABA EC20 current; assay type: cell-based; conditions: for Efficacy (GABA) %: % modulation of GABA EC20 = 100*(Fold increase−1), compound at 30-fold Ki α2β2γ1; for Fold increase h-GABA-A α2β2γ1 oocyte @ 30-fold Ki: Xenopus oocytes, GABA EC20, test compound at approx. 30-fold its Ki α2β2γ1
Protocol: Xenopus laevis oocytes at maturation stages V-VI were used for the expression of cloned mRNA encoding GABAA receptor subunits. Oocytes ready for RNA micro-injection were bought from Ecocyte, Castrop-Rauxel, Germany and stored in modified Barth's medium (composition in mM: NaCl 88, KCl 1, NaHCO3 2.4, HEPES 10, MgSO4 0.82, CaNO3 0.33, CaCl2 0.33, pH=7.5) at 20° C. until the experiment.
Oocytes were plated in 96-well plates for microinjection using the Roboinject automated instrument (MultiChannelSystems, Reutlingen, Germany). Approximately 50 nL of an aqueous solution containing the RNA transcripts for the subunits of the desired GABAA receptor subtype was injected into each oocyte. […] Oocytes were kept in modified Barth's medium (composition in mM: NaCl 88, KCl 1, NaHCO3 […], HEPES 10, MgSO4 0.82, CaNO3 0.33, CaCl2 0.33, pH=7.5) at 20° C. until the experiment.
Electrophysiological experiments were performed using the Roboocyte instrument (MultiChannelSystems, Reutlingen, Germany) on days 3 to 5 after the micro-injection of mRNA. During the experiment the oocytes were constantly superfused by a solution containing (in mM) NaCl 90, KCl 1, HEPES 5, MgCl2 1, CaCl2 1 (pH 7.4). Oocytes were impaled by two glass microelectrodes (resistance: 0.5-0.8 MΩ) which were filled with a solution containing KCl 1M+K-acetate 1.5 M and voltage-clamped to −80 mV. The recordings were performed at room temperature using the Roboocyte two-electrode voltage clamp system (Multichannelsystem). After an initial equilibration period of 1.5 min GABA was added for 1.5 min at a concentration evoking approximately 20% of a maximal current response (EC20). After another rest interval of 2.5 min GABA was again added evoking a response of similar amplitude and shape. […] Current traces were recorded at a digitization rate of 10 Hz during and shortly before and after the GABA application.
Each compound and concentration was tested on at least 3 oocytes. Different oocytes were used for different compound concentrations.
For the analysis, the digitized current traces of the first and second GABA response were superimposed and, if necessary, rescaled to equal maximal amplitudes. The ratio between the two responses during the time interval of test compound application was calculated point by point. The extremum of the resulting “ratio trace” was taken as the efficacy (“Fold increase”) of the compound expressed as “% modulation of GABA EC20” (100*(Fold increase−1)).

[6] = read-out: Ki h-GABAA α2β2γ1, Table 2, membranes of HEK293F cells, [3H]RO7239181

Row | Structure (SMILES) | Ki [1] [nM] | γ2/γ1 Selectivity Ratio [2] | LogSel [2] | Ki ([2]; Table 2, membranes of HEK293F cells, [3H]RO7239181, read-out: Ki h-GABAA α2β2γ1) [nM] | Ki ([2]; membranes of HEK293F cells, [3H]RO7239181 20-30 nM, mean of two determinations, read-out: Ki h-GABAA α2β2γ1) [nM] | Ki ([3]; membranes of HEK293F cells, [3H]RO7239181 1.5 nM, mean of two determinations, read-out: Ki h-GABAA α5β2γ1) [nM] | Ki ([4]; HEK293F cell membranes, [3H]Flumazenil 1 nM, mean of two determinations, read-out: Ki h-GABAA α1β3γ2) [nM] | Ki [2] [nM] | Ki [2, 6] [nM] | Ki [3] [nM] | Efficacy (GABA) % [5] [%] | Fold increase h-GABA-A α2β2γ1 oocyte @ 30-fold Ki [5] | Ki [4] [nM]
1 | C[C@@H]1N=C(c2c(F)cccc2F)c2c(ccc(C(F)(F)F)c2Cl)-n2cc(CO)c(=O)nc21 [Example 29, (5S)-8-chloro-7-(2,6-difluorophenyl)-2-(hydroxymethyl)-5-methyl-9-(trifluoromethyl)-5H-pyrimido[1,2-a][1,4]benzodiazepin-3-one] | 113 | 292.6 | 2.47 | 44.6 | 44.6 | 11.2 | 13100 | – | – | – | – | – | –
2 | Cc1ccc2c(c1Cl)C(c1c(F)cccc1F)=N[C@@H](C)c1nc(=O)c(C)cn1-2 [Example 8, (5S)-8-chloro-7-(2,6-difluorophenyl)-2,5,9-trimethyl-5H-pyrimido[1,2-a][1,4]benzodiazepin-3-one] | – | 32.7 | 1.51 | – | – | – | – | 37.7 | 37.7 | 2 | 115 | 2.15 | 1240
3 | C[C@@H]1N=C(c2c(F)cccc2F)c2c(ccc(Br)c2Cl)-n2cc(Br)c(=O)nc21 [Example 16, (5S)-2,9-dibromo-8-chloro-7-(2,6-difluorophenyl)-5-methyl-5H-pyrimido[1,2-a][1,4]benzodiazepin-3-one] | – | 188.0 | 2.27 | – | – | – | – | 8.3 | – | 1.6 | 71 | 1.71 | 1570
4 | O=c1nc2n(cc1Br)-c1ccc(Cl)c(Cl)c1C(c1c(F)cccc1F)=NC2 [Example 5, 2-bromo-8,9-dichloro-7-(2,6-difluorophenyl)-5H-pyrimido[1,2-a][1,4]benzodiazepin-3-one] | – | 190.6 | 2.28 | – | – | – | – | 10.6 | 10.6 | 1.4 | 78 | 1.78 | 2020
5 | C[C@@H]1N=C(c2c(F)cccc2F)c2c(ccc(Cl)c2Br)-n2ccc(=O)nc21 [Example 6, (5S)-8-bromo-9-chloro-7-(2,6-difluorophenyl)-5-methyl-5H-pyrimido[1,2-a][1,4]benzodiazepin-3-one] | – | 35.7 | 1.55 | – | – | – | – | 49.9 | 49.9 | 4.8 | 121 | 2.21 | 1780
